The numbers were not newly measured in patent publication US5831004A, “Inhibitors of metalloproteases, pharmaceutical compositions comprising same and methods of their use” (Affymax Technologies N.V., priority 1995, dated 1998), which cites them from elsewhere.

In the data set the target is T1, human rheumatoid synovial collagenase (Homo sapiens, UniProt P03956).
T1 sequence (P03956 100-469): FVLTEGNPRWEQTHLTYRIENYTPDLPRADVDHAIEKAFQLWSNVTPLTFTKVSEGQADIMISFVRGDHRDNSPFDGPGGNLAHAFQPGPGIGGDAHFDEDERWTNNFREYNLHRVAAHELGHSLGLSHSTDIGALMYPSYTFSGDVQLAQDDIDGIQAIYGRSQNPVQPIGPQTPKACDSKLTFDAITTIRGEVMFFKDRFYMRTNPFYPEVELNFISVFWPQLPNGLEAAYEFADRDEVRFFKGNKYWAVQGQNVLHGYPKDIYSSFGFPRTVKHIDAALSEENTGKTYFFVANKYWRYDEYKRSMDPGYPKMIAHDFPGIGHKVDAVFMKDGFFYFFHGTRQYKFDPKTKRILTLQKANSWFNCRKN
The note with it: cited from earlier work.

For the compound `CNC(=O)[C@H](Cc1ccc(OC)cc1)NC(=O)[C@H](CC(C)C)NC(CCNC(=O)OCc1ccccc1)C(=O)O` (stereo partly drawn) [N-[3-(benzyloxy-carbonyl)amino-1-carboxy-n-propyl]-L-leucyl-O-methyl-L-tyrosine, N-methylamide], the IC50 (usually the concentration that gives 50% inhibition) is less than 8 µM.
